Results on 14 molecules are retold here after publication PMC9518245 (Journal of Enzyme Inhibition and Medicinal Chemistry, 2022).

Where two headings read alike, the source gives them in different places. A value given as a limit tells only on which side of the number the result lay.

Series [1] deals with T1, FLAP (5-LOX product formation) (Homo sapiens, UniProt P20292).
T1 construct: Human neutrophils were isolated from buffy coats of healthy adult fasted donors; endogenous in cells; host or cells: primary human neutrophils from buffy coats
T1 sequence (P20292 1-161): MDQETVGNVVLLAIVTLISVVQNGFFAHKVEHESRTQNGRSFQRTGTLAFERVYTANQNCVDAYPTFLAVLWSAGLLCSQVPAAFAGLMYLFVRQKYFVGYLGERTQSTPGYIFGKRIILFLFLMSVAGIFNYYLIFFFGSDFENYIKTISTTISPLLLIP
The series can be described thus: FLAP-dependent 5-LOX product formation in human neutrophils. The series is classed as cell-based. The note with it: for IC50: human neutrophils, A23187 stimulated, read-out: FLAP (5-LOX product formation) IC50 ± SEM. As for the experimental part:
Human neutrophils were isolated from buffy coats of healthy adult fasted donors as described recently.[32] […] 200 ng of internal PGB1 standard was added to the acidified samples and solid-phase-extraction using C18 RP-columns (100 mg, UCT, Bristol, PA, USA) was performed. Samples were eluted with methanol and 5-LOX products including 5-HpETE, and the corresponding alcohol 5-HETE, LTB4, and all-trans-isomers of LTB4 were analysed by RP-HPLC with a C-18 Radial-PAK column (Waters, Eschborn, Germany) as described.[33]

The target of a further series is T2, Human recombinant sEH (Homo sapiens, UniProt P34913).
T2 construct: made in house
T2 sequence (P34913 1-555): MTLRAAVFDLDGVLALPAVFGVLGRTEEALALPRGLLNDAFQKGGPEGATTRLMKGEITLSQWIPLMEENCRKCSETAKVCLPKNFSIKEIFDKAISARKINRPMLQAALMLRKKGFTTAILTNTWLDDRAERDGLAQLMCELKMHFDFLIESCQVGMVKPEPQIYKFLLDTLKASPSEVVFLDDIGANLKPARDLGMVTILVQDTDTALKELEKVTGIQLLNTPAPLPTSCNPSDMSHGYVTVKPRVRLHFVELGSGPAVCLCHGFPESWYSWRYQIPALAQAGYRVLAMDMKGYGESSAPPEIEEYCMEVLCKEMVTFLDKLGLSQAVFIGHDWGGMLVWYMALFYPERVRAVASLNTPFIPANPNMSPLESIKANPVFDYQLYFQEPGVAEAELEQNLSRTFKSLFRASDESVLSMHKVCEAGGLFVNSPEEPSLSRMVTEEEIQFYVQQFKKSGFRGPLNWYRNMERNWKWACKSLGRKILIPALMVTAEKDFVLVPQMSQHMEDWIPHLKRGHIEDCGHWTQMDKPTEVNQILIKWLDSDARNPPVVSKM
The series can be described thus: sEH activity assay (PHOME fluorescence, cell-free). The series is classed as biochemical. Here is the method:
Human recombinant sEH was expressed and purified as published.[23] Isolated sEH was diluted in 25 mM Tris buffer (pH 7) containing 0.1 mg/mL BSA to a final protein concentration of 0.5 µg/mL. Preincubation with test compounds or 0.1% vehicle (DMSO) at room temperature for 10 min was followed by stimulation with 50 µM PHOME at RT for 60 min. Reactions were stopped with 200 mM ZnSO4 and fluorescence was subsequently detected at λem 465 nm and λex 330 nm. If required, possible fluorescence of the compounds was subtracted from the read-out.

The next series concerns LT biosynthesis. The note with it: cited from earlier work.
Details of series [2]: method as in PMID 28218273, PMID 26882208, PMID 28839250. The conditions noted are these: cited from earlier work.
The conditions of series [3]: lead compound, stated without reference; cited from earlier work.
In series [4] the target is T1, FLAP (5-LOX product formation). The note with it: neutrophils; cited from earlier work.
Setting [5] is: read-out: sEH IC50 ± SEM, human recombinant sEH, cell-free.

Turning to `S=C(Nc1ccc(OCc2nc3ccccc3[nH]2)cc1)Nc1ccc(Cl)c(Cl)c1` [Compound 6e, 1-(4-((1H-benzo[d]imidazol-2-yl)methoxy)phenyl)-3-(3,4-dichlorophenyl)thiourea], the melting point (as a rule, the temperature, or range, at which the solid turns liquid) is 160 to 162 °C. The IC50 – broadly, the point on the concentration scale where inhibition reaches its midpoint – in series [1] came to 500 ± 100 nM. Also, the IC50 at Human recombinant sEH was found to be 271 ± 58.4 nM.

Regarding `Cc1cc(OCc2nc3ccccc3[nH]2)ccc1NC(=S)Nc1ccc(Cl)c(Cl)c1` [Compound 6d, 1-(4-((1H-benzo[d]imidazol-2-yl)methoxy)-2-methylphenyl)-3-(3,4-dichlorophenyl)thiourea], the melting point was in the range of 122 to 124 °C. In addition, in series [1], the IC50 was 600 ± 100 nM. Further, the IC50 at Human recombinant sEH came out at 223 ± 85.8 nM.

The molecule `Cc1cc(NC(=S)Nc2ccc(Cl)c(Cl)c2)ccc1OCc1nc2ccccc2[nH]1` [Compound 6f, 1-(4-((1H-benzo[d]imidazol-2-yl)methoxy)-3-methylphenyl)-3-(3,4-dichlorophenyl)thiourea] yielded a melting point of 167 to 168 °C. Moreover, in series [1], the IC50 stood at 750 ± 170 nM. Further, at Human recombinant sEH, the 50% inhibitory concentration (IC50) stood at 772 ± 169 nM.

Regarding `CC(C)(C)OC(=O)n1c(COc2ccc(NC(=S)Nc3ccc(Cl)c(Cl)c3)cc2)nc2ccccc21` [Compound 5e, tert-butyl 2-((4-(3-(3,4-dichlorophenyl)thioureido)phenoxy)methyl)-1H-benzo[d]imidazole-1-carboxylate], the melting point is 165 to 167 °C. The IC50 in series [1] is > 10000 nM. Also, the IC50 at Human recombinant sEH was determined as 19.1 ± 7.2 nM.

Consider `Cc1cc(OCc2nc3ccccc3s2)ccc1NC(=O)Nc1ccc(Cl)c(Cl)c1` [Diflapolin], for which the “LT biosynthesis in vivo” value with LT biosynthesis was “efficiently inhibits LT biosynthesis in vivo”. Also, the “anti-inflammatory activity in mouse” value in the series on LT biosynthesis (mouse) is “strong anti-inflammatory activity”. In series [2], the acute cytotoxicity entry is given as “no acute cytotoxicity”. For the same molecule, the solubility entry in series [3] is listed as “poor solubility”.

`Cc1cc(OCc2nc3ccccc3[nH]2)ccc1NC(=O)Nc1ccc(Cl)c(Cl)c1` [Compound 6a, 1-(4-((1H-benzo[d]imidazol-2-yl)methoxy)-2-methylphenyl)-3-(3,4-dichlorophenyl)urea]: the melting point was 245 to 246 °C. Moreover, the half-inhibitory concentration (IC50) in series [1] amounted to 700 ± 100 nM. Moreover, the IC50 on Human recombinant sEH (setting [5]) was 56.9 ± 19.4 nM.

For the molecule `O=C(Nc1ccc(OCc2nc3ccccc3[nH]2)cc1)Nc1ccc(Cl)c(Cl)c1` [Compound 6b, 1-(4-((1H-benzo[d]imidazol-2-yl)methoxy)phenyl)-3-(3,4-dichlorophenyl)urea], the melting point worked out at 272 °C. Moreover, the IC50 in series [1] came to 600 ± 100 nM. Further, at Human recombinant sEH, the IC50 worked out at 10.5 ± 1.9 nM.

`CC(C)(C)OC(=O)n1c(COc2ccc(NC(=O)Nc3ccc(Cl)c(Cl)c3)cc2)nc2ccccc21` [Compound 5b, tert-butyl 2-((4-(3-(3,4-dichlorophenyl)ureido)phenoxy)methyl)-1H-benzo[d]imidazole-1-carboxylate] returned a melting point of 262 to 264 °C. Also, the IC50 in series [1] was > 10000 nM. In addition, the IC50 at Human recombinant sEH was determined as 0.63 ± 0.1 nM.

Turning to `Cc1cc(NC(=S)Nc2ccc(Cl)c(Cl)c2)ccc1OCc1nc2ccccc2n1C(=O)OC(C)(C)C` [Compound 5f, tert-butyl 2-((4–(3-(3,4-dichlorophenyl)thioureido)-2-methylphenoxy)methyl)-1H-benzo[d]imidazole-1-carboxylate], the melting point was in the range of 169 to 172 °C. Besides, the IC50 in series [1] is > 10000 nM. At Human recombinant sEH, the IC50 amounted to 17.5 ± 12.7 nM.

For `Cc1cc(OCc2nc3ccccc3n2C(=O)OC(C)(C)C)ccc1NC(=S)Nc1ccc(Cl)c(Cl)c1` [Compound 5d, tert-butyl 2-((4-(3-(3,4-dichlorophenyl)thioureido)-3-methylphenoxy)methyl)-1H-benzo[d]imidazole-1-carboxylate], the melting point came out at 172 °C. Further, in series [1], the “FLAP activity (in words)” value was “Inactive” and the IC50 is > 10000 nM. Moreover, the “sEH activity (in words)” value at Human recombinant sEH is “inactive”. Further, the IC50 at Human recombinant sEH (setting [5]) is > 10000 nM.

As to `CC(C)c1ccc2c(c1)c(SC(C)(C)C)c(CC(C)(C)C(=O)O)n2Cc1ccc(Cl)cc1` [MK-886], the IC50 in series [4] was 10 to 14 nM.

With `Cc1cc(OCc2nc3ccccc3n2C(=O)OC(C)(C)C)ccc1NC(=O)Nc1ccc(Cl)c(Cl)c1` [Compound 5a, tert-butyl-2-((4-(3-(3,4-dichlorophenyl)ureido)-3-methylphenoxy)methyl)-1H-benzo[d]imidazole-1-carboxylate], the melting point fell in the range of 261 to 263 °C. Moreover, the IC50 in series [1] worked out at 3700 ± 900 nM. Besides, at Human recombinant sEH, the IC50 stood at 0.7 ± 0.1 nM.

The molecule `Cc1cc(NC(=O)Nc2ccc(Cl)c(Cl)c2)ccc1OCc1nc2ccccc2n1C(=O)OC(C)(C)C` [Compound 5c, tert-butyl-2-((4-(3-(3,4-dichlorophenyl)ureido)-2-methylphenoxy)methyl)-1H-benzo[d]imidazole-1-carboxylate] displayed a melting point of 145 to 146 °C. For the same molecule, the IC50 in series [1] was > 10000 nM. Further, the IC50 at Human recombinant sEH was 0.7 ± 0.1 nM.

For the molecule `Cc1cc(NC(=O)Nc2ccc(Cl)c(Cl)c2)ccc1OCc1nc2ccccc2[nH]1` [Compound 6c, 1-(4-((1H-benzo[d]imidazol-2-yl)methoxy)-3-methylphenyl)-3-(3,4-dichlorophenyl)urea], the melting point was in the range of 228 to 230 °C. The IC50 in series [1] is 400 ± 10 nM. Besides, the IC50 at Human recombinant sEH came to 4.9 ± 1 nM.
